Source: patent publication US20020032183A1, “Use of (di-substituted-phenyl)-pyrimidinyl-imidazole derivatives as JNK-inhibitors” (priority 2000, published 2002)

How the values were obtained:
[1] = tested on: Rat superior cervical ganglion neurons; experiment: Sympathetic neuronal NGF deprivation assay (GAP-43 ELISA and cell counts); format: cell-based; conditions: for Survival, Cell Counts Mean / Survival, ELISA Data Mean: 72 hours; for Survival, ELISA Data Mean: GAP-43 ELISA
Experimental: (§1) Activation of c-jun-N-terminal kinase (JNK) has been implicated in apoptosis in sympathetic neurons. An inhibitor of JNK, Example 2, was tested for neuroprotective effects in two models of sympathetic neuronal cell death.
In the second model, ganglia were dissociated and plated in the presence of NGF 25 ng/ml for 4 days. The NGF was then removed by washing and application of a blocking antibody, and L-790,984 coadministered for 72 hours. Survival was then assayed using the GAP-43 ELISA. This model will be referred to hereafter as the ‘NGF deprivation assay’.
(§2) Ganglia were enzymatically dissociated using 0.25% trypsin for 45 minutes. The trypsin was then inhibited using Dulbecco's MEM (DMEM) supplemented with 10% fetal bovine serum, and the cells mechanically triturated using a pipette tip to form a single cell suspension. Neurons in the suspension were counted using a haemocytometer, and plated at a density of 3000-5000 neurons per well in poly-D-lysine and laminin coated 96 well tissue culture clusters in DMEM supplemented with B27 serum substitute. Cultures were then incubated at 37° C./5% CO2. One hour following plating, cultures were either treated with NGF 25 ng/ml or with L-790,984 at a range of concentrations for the NGF deprivation and survival assays respectively.
(§3) Cultures for the NGF deprivation assay were returned to the incubator for 4 days. Following this, the medium was aspirated, plates washed once with DMEM/B27, and the cultures treated with Example 2 at concentrations ranging from 1 nM to 10 μM, together with an anti-NGF blocking antibody at 250 ng/ml. Cultures were then returned to the incubator for a further 72 hours prior to fixation and survival quantification. Cultures treated with Example 2 immediately for the survival assay were returned to the incubator for 48 hours; cultures were then fixed and survival quantified using the GAP-43 ELISA.
(§4) Cultures were fixed by the addition of an equal volume 4% paraformaldehyde to each well for 10 minutes; this was then aspirated, and replaced by a further volume of 4% paraformaldehyde for a further 20 minutes at room temperature. Plates were then washed three times with PBS/0.3% TX100, and non-specific binding sites blocked by the addition of 5% normal horse serum (NHS) in PBS/0.3% TX100. Plates were incubated at room temperature for one hour, then the blocking serum was aspirated without washing and replaced with primary antibody. The primary antibody used was a mouse monoclonal antibody raised against Growth Associated Protein 43 (Sigma), prepared at a dilution of 1:500 in PBS/0.3% TX100/5% NHS. Primary antibody was added to all sample wells, with four control wells returned to blocking serum to act as minus primary control. Plates were then refrigerated overnight at 4° C. The next day, plates were washed three times with PBS/0.3 TX100 and secondary antibody added. The secondary antibody used was peroxidase conjugated sheep anti-mouse IgG, and was added at a dilution of 1:1000 in PBS/0.3% TX100/5% NHS. Plates were incubated for 1 hour at room temperature, then washed three times with PBS/0.3% TX100, and K-Blue insoluble peroxidase substrate added for 30 minutes at room temperature. The optical density of the plates was then read at 650 nm, and the survival of neurons calculated and expressed as percentage of the control response.
(§5) Cell counts were performed on one sample plate for each model of sympathetic neuronal cell death, by the addition of a tertiary antibody to the plate, followed by avidin-biotin complex and an insoluble peroxidase substrate. Following quantification of optical density, plates were washed three times in PBS/0.3% TX100, and non-specific sites blocked using PBS/0.3% TX100/5% normal rabbit serum (“NRS”). Plates were incubated for one hour at room temperature, then the blocking serum was aspirated and replaced with biotinylated rabbit anti-sheep IgG at a dilution of 1:500 in PBS/0.3% TX10O/5% NRS. […]

[2] = tested on: Rat superior cervical ganglion neurons; experiment: Sympathetic neuronal survival assay (no NGF exposure; GAP-43 ELISA and cell counts); format: cell-based; conditions: for Survival, ELISA Data Mean / Survival, Cell Counts Mean: 48 hours; for Survival, ELISA Data Mean: GAP-43 ELISA; for Survival, Cell Counts Mean: immunostained neurons per well
Experimental: as §1
In the first model, ganglia were dissociated and plated directly into culture plates in the presence of compound for 48 hours, then fixed and survival assayed using an ELISA for GAP-43. This model will hereafter be referred to as the ‘survival assay’.
as §2, §3, §4, §5

Structure (SMILES): CCCn1c(C2CCN(C)CC2)nc(-c2ccc(Cl)c(Cl)c2)c1-c1ccnc(NC2CC2)n1 [Example 2, Cyclopropyl-{4-[5-(3,4-dichlorophenyl)-2-[(1-methyl)-piperidin]-4-yl-3-propyl-3H-imidazol-4-yl]-pyrimidin-2-yl}amine]
- Survival, Cell Counts Mean ([1]; 0.001 μM + anti-NGF 250 ng/ml): 82.00
- Survival, ELISA Data Mean ([1]; 0.001 μM + anti-NGF 250 ng/ml): 35.44
- Survival, Cell Counts Mean ([1]; 0.01 μM + anti-NGF 250 ng/ml): 81.00
- Survival, ELISA Data Mean ([1]; 0.01 μM + anti-NGF 250 ng/ml): 28.20
- Survival, Cell Counts Mean ([1]; 0.1 μM + anti-NGF 250 ng/ml): 53.75
- Survival, ELISA Data Mean ([1]; 0.1 μM + anti-NGF 250 ng/ml): 22.89
- Survival, Cell Counts Mean ([1]; 0.5 μM + anti-NGF 250 ng/ml): 140.25
- Survival, ELISA Data Mean ([1]; 0.5 μM + anti-NGF 250 ng/ml): 60.15
- Survival, Cell Counts Mean ([1]; 1 μM + anti-NGF 250 ng/ml): 200.00
- Survival, ELISA Data Mean ([1]; 1 μM + anti-NGF 250 ng/ml): 102.79
- Concentrations at which the survival response was significant ([1]; measured by ELISA): ≥ 500 nM
- Concentrations at which the survival response was significant ([1]; measured by cell counts): ≥ 500 nM
- Survival, ELISA Data Mean ([2]; 0.01 μM): 112.10
- Survival, Cell Counts Mean ([2]; 0.01 μM): 115.50
- Survival, ELISA Data Mean ([2]; 0.03 μM): 99.19
- Survival, Cell Counts Mean ([2]; 0.03 μM): 127.25
- Survival, ELISA Data Mean ([2]; 0.1 μM): 131.45
- Survival, Cell Counts Mean ([2]; 0.1 μM): 170.50
- Survival, ELISA Data Mean ([2]; 0.3 μM): 209.68
- Survival, Cell Counts Mean ([2]; 0.3 μM): 267.50
- Survival, ELISA Data Mean ([2]; 1 μM): 350.81
- Survival, Cell Counts Mean ([2]; 1 μM): 363.00
- Survival, ELISA Data Mean ([2]; 3 μM): 270.16
- Survival, Cell Counts Mean ([2]; 3 μM): 321.00
- Concentrations at which the survival response declines ([2]; data not shown): above 3 μM
- Concentrations at which the survival response was significant ([2]; quantified by ELISA): ≥ 300 nM
